According to US6617343B1, “Hypoglycemic N,N-arylsulfonylglycine compounds” (Eli Lilly and Company, priority 1999, dated 2003):

Assays:
[1] = tested on: Male obese-diabetic viable yellow (AvY) mice; assay: Hypoglycemic efficacy: blood glucose in obese-diabetic viable yellow mice fed compound admixed in chow; format: in vivo; details: dose .03 weight percent in diet; for % BG14 (BG0 = 100): blood glucose at day 14 as percent of initial value
Experimental: Male obese-diabetic viable yellow (AvY) mice were divided into two groups of 6 each. One group was fed repelletized purina 5008 Chow and the second group was fed repelletized Purina 5008 Chow, admixed with varying doses of the candidate compound. Blood samples were taken before the experiment was initiated and 7 and 14 days after initiation. Body weight and food consumption were monitored. The blood glucose level after 7 or 14 days of treatment was measured and recorded as a percent of the initial value, compared to the untreated control (first) group. The results are presented in the table 1 below; and include the dose of the candidate compound as a weight percent of the amount incorporated into the diet. Also in the table is a representative value for a positive control (a known hypoglycemic agent reported by a Takeda group [J. Med. Chem., 35, 2617]) administered in the same way as a canditate compound of the present invention.
BG means blood glucose level; BG0 means blood glucose level at day zero and BG14 means blood glucose level at day 14 accordingly.

melting point | SMILES | % BG14 (BG0 = 100) [1] | % BG14 (BG0 = 100), (day 7) ([1]; blood glucose at day 7 as percent of initial value)
136 to 139 °C | CC(C)S(=O)(=O)N(CC(=O)O)c1ccc(OCCc2coc(-c3ccccc3)n2)cc1 [Example 1, N-[4-(2-(Phenyloxazol-4yl)ethoxyl]phenyl)-N-isopropyl Sulfonylglycine] | 53.1% | –
154 to 156 °C | CN(C)S(=O)(=O)N(CC(=O)O)c1ccc(OCCc2coc(-c3ccccc3)n2)cc1 [Example 4, N-[4-(2-(Phenyloxazol-4yl)ethoxy)phenyl]-N-N′N′-dimethyl aminosulfonylglycine] | 70.1% | –

Second part, the compound before the results:

SMILES | melting point | % BG14 (BG0 = 100) [1] | % BG14 (BG0 = 100), (day 7) ([1]; blood glucose at day 7 as percent of initial value)
CS(=O)(=O)N(CC(=O)O)c1ccc(OCCc2coc(-c3ccccc3)n2)cc1 [Example 2, N-4[-(2-(Phenyloxazol-4yl)ethoxy)phenyl]-N-methylsufonyl-glycine] | 200 to 201 °C | 76.4% | –
CS(=O)(=O)N(CC(=O)[O-])c1ccc(OCCc2coc(-c3ccccc3)n2)cc1.[Na+] [Example 3, Sodium N-(4-(2-Phenyl-4-oxazolylethoxy)phenyl)-N-methylsulfonylglycinate] | – | 57.9% | –
O=C(O)CN(c1ccc(OCCc2coc(-c3ccccc3)n2)cc1)S(=O)(=O)Cc1ccccc1 [Example 5, N-[4-(2-(phenyloxazol-4yl)ethoxy)phenyl]-N-phenylmethyl sulfonylglycine] | 147 to 149 °C | 77.0% | –
CS(=O)(=O)N(CC(=O)O)c1ccc2oc(Cc3ccc4ccccc4c3)cc2c1 [Example 6, N-[5-(-2-(2-naphthylmethyl)benzofuranyl)]-N-methylsulfonylglycine] | 160 to 165 °C (dec.) | – | 93.1 (day 7) %
